Reference: patent publication US5753681A, “Treatment and prophylaxis of pancreatitis” (Sankyo Company, Limited, priority 1996, dated 1998)
Like-named read-outs stand apart in the source and are kept apart here.

Assays:
plasma lipase = assay: Effect of long term treatment on plasma lipase activity; type: in vivo, male WBN/Kob rats; conditions: 9.5 months; for Plasma Lipase Activity: control 33.7 ± 7.8
Source text: In pancreatitis, secretion of digestive enzymes is impaired and delivery of digestive enzymes to the duodenum is reduced. In addition, digestive enzymes leak into the blood and their level in the blood and urine increase. Accordingly, the extent of pancreatitis can be estimated by measuring the amount of digestive enzymes which have leaked into the blood (Methods of Clinical Examination: Kinbara Publisher).
The measurement of digestive enzymes may also be carried out by conventional procedures. For example, after the test drug mixed into powdered feed has been administered to male WBN/Kob rats for a definite period, the blood may be collected and the lipase activity (one of the digestive enzymes) in the plasma may be measured.
(§1) The test animals were male WBN/Kob rats. Each group of test animals contained 6 animals, and the animals were used for the experiment when they had reached 12 weeks old. The animals were fed with powdered feed F2 mixed with 0.2% or 0.05% of troglitazone for 9.5 months. These groups are hereinafter referred to as "the 0.2% group" and "the 0.05% group", respectively. The average doses of the compound during this period were 120 mg/kg/day and 30 mg/kg/day, respectively. Meanwhile, another six rats (control group) were fed with the powdered feed F2 only. After the rats had been fed with the feeds for 9.5 months, each rat was decapitated and its blood was collected. The blood serum was separated and the plasma lipase level was measured using an autoanalyser (type 7250, manufactured by Hitachi Ltd.).

Acute toxicity = type: in vivo, ddY mice (male); conditions: single oral dose of 300 mg/kg, observed for 5 days, three mice
Method: Acute toxicity was assayed by conventional procedures. […] At the end of this time, the animals were all alive. When the acute toxicities of Compounds No. 2, 3, 4 and 10 were measured in the same manner, the mice were all alive after an oral dose of 300 mg/kg or more.

[1] = Histopathology of pancreatic tissue of Example 6: total cross-sectional area and cicatrized area; type: in vivo, male WBN/Kob rats; conditions: 9.5 months; for Cicatrized area in the exocrine pancreatic tissue: **p < 0.01
Method: The measurement of the cicatrized area may also be carried out by conventional procedures. More specifically, male WBN/Kob rats are used as models of spontaneous chronic pancreatitis and are fed with a powdered feed admixed with a test compound. The pancreas of each animal is then totally enucleated. Its weight is measured and also the cicatrized area is measured relative to the total cross-sectional area of the pancreas tissue sliced by an image analyser.
In order to evaluate the results of Example 2 histopathologically, each pancreas used for weight measurement in Example 2 was fixed in 10% neutral formalin. It was then divided into a spleen side half and a duodenum side half, and each half was sliced at 3 mm intervals to provide cross-sectional tissue pieces. All of these tissue pieces were subjected to paraffin sectioning by conventional procedures and then to hematoxylin-eosin staining and Masson's trichrome staining to prepare two tissue preparations, which were used for histopathological examination. The total cross-sectional area of the pancreatic tissue piece on each preparation was measured using an image analyser (SPICCAII, manufactured by Olympus Optical Co., Ltd.).
In addition, the surface area of the zone which had undergone degeneration and necrosis and in which the exocrine pancreatic tissue was replaced with connective tissue (the cicatrized area) was measured using an image analyser.
as §1
In order to evaluate the results of Example 6 histopathologically, the total cross-sectional area and cicatrized area of each pancreas whose weight was measured in Example 6 was measured by the procedure described in Example 4.

[2] = type: in vivo, Wistar-Imamichi rats; conditions: 170 mg/kg/day
Source text: Since the decrease in the amount of pancreatic parenchyma resulting from chronic pancreatitis causes loss of pancreatic weight, any suppression of the decrease in the amount of pancreatic parenchyma can be used as an index for evaluating any improvement in the pancreatitis. Furthermore, since degeneration and necrosis of the pancreatic parenchyma and its replacement by connective tissue occurs in chronic pancreatitis, the seriousness of the pancreatitis can be estimated by histopathologically measuring the area over which the pancreatic parenchyma is replaced with connective tissue (known as the "cicatrized area").
Measurement of the weight of the pancreas may be carried out by conventional procedures after the experimental animals have been sacrificed by phlebotomy.
The effects of pancreatitis may be simulated, as is conventional, in experimental animals, by the administration of streptozotocin [(N-methylnitroso-carbamoyl)-D-glucosamine: R. A. Bennett et al., Cancer Res., 41, 2786-2790, (1981); a product of Sigma Chemical Company], which is capable of specifically destroying the Langerhans islet B cells and which thus induces a decrease in pancreatic weight. Streptozotocin is administered intravenously to the experimental animal, and then a powdered feed admixed with a test compound is given to a group of animals which have been dosed with streptozotocin. This group is hereafter referred to as the "treated group". Meanwhile, a powdered feed only is given to another group of animals which have been dosed with streptozotocin. This group is hereafter referred to as the "control group". Normal animals (undosed) fed with the feed only are also used as a blank group against the experimental animals (dosed with streptozotocin). After the test compounds have been administered to the animals for a predetermined period, each animal is sacrificed to measure its pancreatic weight. […]
Meanwhile, another group of rats was fed with the powdered feed F2 only. […] After a predetermined period, the rats were sacrificed and the pancreatic weight of each animal was measured.

[3] = Effect of long term treatment on pancreatic weight; type: in vivo, male WBN/Kob rats; conditions: 9.5 months; for Pancreatic weight: control 804 ± 35
Method: as §1
After the blood had been collected, the pancreas of each animal was totally enucleated and weighed.

[4] = 0.05% group, 30 mg/kg/day in feed
[5] = both the 0.2% group and the 0.05% group, vs. control group

For `Cc1c(C)c2c(c(C)c1O)CCC(C)(COc1ccc(CC3SC(=O)NC3=O)cc1)O2` (stereo not drawn) [troglitazone, 5-[4-(6-Hydroxy-2,5,7,8-tetramethylchroman-2-ylmethoxy)benzyl]thiazolidine-2,4-dione], the “Plasma Lipase Activity” value (plasma lipase; [4]) was 17.5 ± 2.2 IU/l, the “Plasma Lipase Activity” value (plasma lipase; 0.2% group, 120 mg/kg/day in feed, *p < 0.05) was 13.2 ± 1.0 IU/l and the “Plasma lipase activity (in words)” value (plasma lipase; [5]) was “significant decrease”. For the same molecule, the “Survival (acute toxicity)” value (Acute toxicity) was “all alive”, the “Cicatrized area in the exocrine pancreatic tissue” value (shortened to “Cicatrized area”) ([1]; duodenum side, 0.05% group, control 2.48 ± 0.39) was 1.03 ± 0.16 mm^2 and the “Total cross-sectional area of pancreatic tissue piece” value (from here on “Total cross-sectional area”) ([1]; duodenum side, 0.05% group, control 106.1 ± 6.6) was 110.6 ± 7.7 mm^2. The “Cicatrized area” value ([1]; duodenum side, 0.2% group, control 2.48 ± 0.39) was 0.65 ± 0.06 mm^2, the “Total cross-sectional area” value ([1]; duodenum side, 0.2% group, control 106.1 ± 6.6) was 122.3 ± 7.4 mm^2 and the “Cicatrized area” value ([1]; spleen side pancreatic half, 0.05% group, control 4.96 ± 0.82) was 1.68 ± 0.12 mm^2. The “Total cross-sectional area” value ([1]; spleen side pancreatic half, 0.05% group, control 103.0 ± 16.9) was 96.2 ± 8.2 mm^2, the “Cicatrized area” value ([1]; spleen side pancreatic half, 0.2% group, control 4.96 ± 0.82) was 1.23 ± 0.19 mm^2 and the “Total cross-sectional area” value ([1]; spleen side pancreatic half, 0.2% group, control 103.0 ± 16.9, *p < 0.05) was 141.9 ± 10.6 mm^2. For the same molecule, the “Inhibition of pancreatic weight loss (in words)” value ([2]; 0.2% in feed, 14 days, vs. control group) was “significantly inhibited the pancreatic weight loss”, the “Lesions such as edema in the pancreas” value ([2]; rat, in vivo) was “no lesions such as edema” and the Pancreatic weight ([2]; treated group, 0.2% in feed, 14 days, after streptozotocin 25 mg/kg i.v., normal 1333 ± 43, control 1253 ± 39, *p < 0.05 vs. control) was 1435 ± 40 mg. For the same molecule, the “Pancreatic weight” value [3, 4] was 906 ± 63 mg, the “Pancreatic weight” value ([3]; 0.2% group, 120 mg/kg/day in feed, ***p < 0.001) was 1164 ± 52 mg and the “Pancreatic weight (in words)” value [3, 5] was “significant increase”.
